Assays:
Substance-K receptor [1] = target: T1, Substance-K receptor (Mesocricetus auratus, UniProt P51144); test: Inhibition constant for displacement of [3H]NKA from Tachykinin receptor 2 found in hamster urinary bladder membrane (HUBM); format: cell membranes
T1 sequence (P51144 whole entry): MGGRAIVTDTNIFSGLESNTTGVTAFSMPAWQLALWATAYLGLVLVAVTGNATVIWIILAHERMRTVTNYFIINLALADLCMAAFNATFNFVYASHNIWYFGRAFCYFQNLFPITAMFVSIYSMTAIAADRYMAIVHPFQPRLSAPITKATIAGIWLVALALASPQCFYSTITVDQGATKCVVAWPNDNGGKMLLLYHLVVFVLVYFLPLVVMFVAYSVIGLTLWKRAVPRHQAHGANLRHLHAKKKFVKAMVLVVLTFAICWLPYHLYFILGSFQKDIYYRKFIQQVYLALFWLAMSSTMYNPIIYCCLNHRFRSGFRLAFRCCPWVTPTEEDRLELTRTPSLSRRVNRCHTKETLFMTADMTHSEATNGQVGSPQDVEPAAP

Cavia porcellus = organism: Cavia porcellus; test: Compound was tested for the inhibition of contraction induced by [b-Ala8-NKA(4-10)] in guinea pig trachea; format: functional
Substance-K receptor [2] = target: T2, Substance-K receptor (Homo sapiens, UniProt P21452); test: Displacement of [3H]NKA from the cloned human Tachykinin receptor 2 which has been expressed in baculovirus infected insect sf21 cells
T2 sequence (P21452 whole entry): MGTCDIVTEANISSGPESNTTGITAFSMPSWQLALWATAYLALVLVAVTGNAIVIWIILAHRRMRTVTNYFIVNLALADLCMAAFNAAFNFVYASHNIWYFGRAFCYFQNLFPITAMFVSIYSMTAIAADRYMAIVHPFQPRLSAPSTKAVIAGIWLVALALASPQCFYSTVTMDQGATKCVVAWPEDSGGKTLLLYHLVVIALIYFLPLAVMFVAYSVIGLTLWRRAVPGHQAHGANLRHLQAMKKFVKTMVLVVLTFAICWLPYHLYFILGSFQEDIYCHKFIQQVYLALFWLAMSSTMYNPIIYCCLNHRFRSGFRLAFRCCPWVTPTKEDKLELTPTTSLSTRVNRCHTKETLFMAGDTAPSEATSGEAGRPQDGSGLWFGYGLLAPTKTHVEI

Substance-K receptor [3] = target: T2, Substance-K receptor; test: Inhibition constant for displacement of [3H]NKA from the cloned human NK2 receptor
Substance-K receptor [4] = target: T2, Substance-K receptor; test: Inhibition constant for displacement of [3H]-NKA from the cloned human NK2 receptor which has been expressed in baculovirus infected insect sf21 cells

Row | SMILES | Ki (Substance-K receptor [1]) [nM] | Ki (Substance-K receptor [2]) [µM] | also measured
1 | Clc1ccc(Nc2nc(N3CCOCC3)nc3ccccc23)cc1 | 29500 |  | 
2 | CC(C)c1nc2nc(N3CCC(C)(O)CC3)nc(Nc3ccc(Cl)cc3)c2[nH]1 |  | 2.1 | Kb (Cavia porcellus): 10.7 µM
3 | CCCc1nc2nc(N3CCOCC3)nc(Nc3ccc(Cl)cc3)c2[nH]1 | 54 |  | Ki (Substance-K receptor [3]): 2.34 µM
4 | CC(C)c1nc2[nH]c(NCc3ccccc3)nc(Nc3ccc(Cl)cc3)c-2n1 |  | 5.58 | 
5 | CC(C)c1nc2[nH]c(NCCCN)nc(Nc3ccc(Cl)cc3)c-2n1 |  | 2.55 | 
6 | Cc1nc2[nH]c(N3CCOCC3)nc(Nc3ccc(Cl)cc3)c-2n1 | 6600 |  | Ki (Substance-K receptor [3]): 17.5 µM
7 | CC(C)c1nc2[nH]c(N3CCC4(CC3)OCCO4)nc(Nc3ccc(Cl)cc3)c-2n1 |  | 4.36 | 
8 | CC(C)c1nc2nc(N3CCOCC3)nc(Nc3ccc(C(F)(F)F)cc3)c2[nH]1 |  | 2.85 | Kb (Cavia porcellus): > 100 µM
9 | CC(C)c1nc2nc(N3CCC(O)CC3)nc(Nc3ccc(C(F)(F)F)cc3)c2[nH]1 |  | 1.77 | Kb (Cavia porcellus): > 100 µM
10 | CCCNc1nc(Nc2ccc(Cl)cc2)c2[nH]c(C(C)C)nc2n1 |  | 3.49 | 
11 | O=C(O)c1ccc2c(Nc3ccc(Cl)cc3)nc(N3CCOCC3)nc2c1 | 20300 |  | 
12 | COC(=O)c1ccc2c(Nc3ccc(Cl)cc3)nc(N3CCOCC3)nc2c1 | 820 |  | 
13 | CC(C)c1nc2[nH]c(N3CCC(=O)CC3)nc(Nc3ccc(Cl)cc3)c-2n1 |  | 5.89 | 
14 | CCc1nc2nc(N3CCOCC3)nc(Nc3ccc(Cl)cc3)c2[nH]1 | 520 |  | Ki (Substance-K receptor [3]): 6.94 µM
15 | CC(C)NC(=O)c1ccc2c(Nc3ccc(Cl)cc3)nc(N3CCOCC3)nc2c1 | 58700 |  | 
16 | CC(C)N1Cc2c(Nc3ccc(Cl)cc3)nc(N3CCOCC3)nc2C1=O | 15 |  | Ki (Substance-K receptor [3]): 0.55 µM
17 | COC1(OC)CCN(c2nc(Nc3ccc(Cl)cc3)c3[nH]c(C(C)C)nc3n2)CC1 |  | 3.44 | 
18 | CC(C)c1nc2[nH]c(N3CCOCC3)nc(Nc3ccc(Cl)cc3)c-2n1 | 67 |  | Kb (Cavia porcellus): 70.8 µM; Ki (Substance-K receptor [4]): 3.07 µM
19 | CC(C)c1nc2nc(N3CCC(O)(c4ccccc4)CC3)nc(Nc3ccc(Cl)cc3)c2[nH]1 |  | 2.24 | Kb (Cavia porcellus): 100 µM
